According to patent US7655252B2 (priority 1999, dated 2010):

Test system: Influenza virus A/AA/6/60
Assay type: cell-based

Question: “t-octylphenoxypolyethoxyethanol [TRITON X-100]” was tested. Which “inhibition of the infectivity of virus” value did it give?
Answer: only partially inhibited

Question: What about the “reduction of influenza A infection of MDCK cells” value (30 min) of the same substance?
Answer: completely ineffective
